Data taken from patent US20250250647A1, “STABLE CELL CLONES HARBORING REPLICATING SARS-COV-2 RNA” (priority 2021, published 2025).

Test system: SARS-CoV-2-Rep-NanoLuc-Neo-Nsp1^K164A/H165A replicon
Type: cell-based
Details: read-out: IC50, mean over stable replicon clones

Structure (SMILES): CC(C)C[C@H](NC(=O)OCc1ccccc1)C(=O)N[C@@H](CC1CCNC1=O)C(O)S(=O)(=O)O (stereo partly shown) [GC376]
- IC50: 9.3 µM
